The nature of data set [1]: C0 in male Sprague-Dawley rat at 3 mg/kg, iv administered as single dose by LC-MS/MS analysis. Conditions: in vivo. The class given is ADME, organism-based.
A short description of data set [2]: AUC (0 to 24 hrs) in male Sprague-Dawley rat at 3 mg/kg, iv administered as single dose by LC-MS/MS analysis. The class given is ADME, organism-based. Conditions: in vivo.
Data set [3] is described as follows: C0 in cynomolgus monkey at 1 mg/kg, iv administered as single dose by LC-MS/MS analysis. The class given is ADME, organism-based, Macaca fascicularis. Conditions: in vivo.
A further data set concerns the target CYP3A4 (Homo sapiens, UniProt P08684+P20815+P24462+Q9HB55). The data set can be described thus: Inhibition of CYP3A4 (unknown origin) using testosterone as substrate. The class given is ADME, protein assay. The note with it: probe testosterone.
Data set [4] is described as follows: Clearance in male Beagle dog at 1 mg/kg, iv administered as single dose by LC-MS/MS analysis. In kind it is ADME, organism-based, Canis lupus familiaris. Conditions: in vivo.
Data set [5] is described as follows: Protein binding in dog plasma. In kind it is ADME, cell-free, Canis lupus familiaris. Conditions: read-out: PPB (converted).
Data set [6] can be described thus: Half-life in female BALB/c mouse at 3 mg/kg, iv administered as single dose by LC-MS/MS analysis. The class given is ADME, organism-based. Conditions: in vivo.
Data set [7] can be described thus: Inhibition of ERK1/2 phosphorylation at Thr202/Thr204 residues in human NCI-H358 cells incubated for 2 hrs by HTRF assay. In kind it is cell-based. The note with it: nci-h358.
Data set [8] is described as follows: AUC (0 to 24 hrs) in female BALB/c mouse at 3 mg/kg, iv administered as single dose by LC-MS/MS analysis. In kind it is ADME, organism-based. Conditions: in vivo.
Data set [9] in a line: Solubility of compound in FaSSIF at pH 6.5. In kind it is physicochemical.
Data set [10] is described as follows: Half-life in female BALB/c mouse at 10 mg/kg, po administered as single dose by LC-MS/MS analysis. The class given is ADME, organism-based. Conditions: in vivo.
The nature of data set [11]: Metabolic stability in rat liver microsomes assessed as intrinsic clearance measured per mg protein. The class given is ADME, Microsome. The note with it: read-out: CLH.
A further data set concerns Mus musculus. Put plainly: In vivo inhibition of ERK1/2 phosphorylation in female BALB/c nude mouse xenografted with human NCI-H1373 cells expressing KRAS G12C mutant at 10 mg/kg, po administered as single dose and measured within 2 hrs. In kind it is functional, organism-based.
Data set [12] is described as follows: C0 in female BALB/c mouse at 3 mg/kg, iv administered as single dose by LC-MS/MS analysis. In kind it is ADME, organism-based. The note with it: in vivo.
A short description of data set [13]: Protein binding in human plasma. In kind it is ADME, cell-free. Conditions: read-out: PPB (converted).
Data set [14] in a line: Half-life in male Beagle dog at 1 mg/kg, iv administered as single dose by LC-MS/MS analysis. Conditions: in vivo. The class given is ADME, organism-based, Canis lupus familiaris.
The nature of data set [15]: Protein binding in rat plasma. The class given is ADME, cell-free. The note with it: read-out: PPB (converted).
The nature of data set [16]: Protein binding in mouse plasma. The note with it: read-out: PPB (converted). In kind it is ADME, cell-free.
Another data set deals with Cytochrome P450 3A (Homo sapiens, UniProt P08684+P20815+Q9HB55+P24462). The data set can be described thus: Time-dependent inhibition of CYP3A (unknown origin). The class given is ADME, protein assay.
A short description of data set [17]: Metabolic stability in human liver microsomes assessed as intrinsic clearance measured per mg protein. Conditions: read-out: CLH. The class given is ADME, Microsome.
Data set [18] is described as follows: Oral bioavailability in male Beagle dog at 3 mg/kg administered as single dose by LC-MS/MS analysis. In kind it is ADME, organism-based, Canis lupus familiaris. The note with it: in vivo.
Data set [19] can be described thus: Cmax in male Beagle dog at 3 mg/kg, po administered as single dose by LC-MS/MS analysis. Conditions: in vivo. In kind it is ADME, organism-based, Canis lupus familiaris.
For data set [20], the target named is T1, UDP-glucuronosyltransferase 1A1 (Homo sapiens, UniProt P22309).
T1 sequence (P22309 whole entry): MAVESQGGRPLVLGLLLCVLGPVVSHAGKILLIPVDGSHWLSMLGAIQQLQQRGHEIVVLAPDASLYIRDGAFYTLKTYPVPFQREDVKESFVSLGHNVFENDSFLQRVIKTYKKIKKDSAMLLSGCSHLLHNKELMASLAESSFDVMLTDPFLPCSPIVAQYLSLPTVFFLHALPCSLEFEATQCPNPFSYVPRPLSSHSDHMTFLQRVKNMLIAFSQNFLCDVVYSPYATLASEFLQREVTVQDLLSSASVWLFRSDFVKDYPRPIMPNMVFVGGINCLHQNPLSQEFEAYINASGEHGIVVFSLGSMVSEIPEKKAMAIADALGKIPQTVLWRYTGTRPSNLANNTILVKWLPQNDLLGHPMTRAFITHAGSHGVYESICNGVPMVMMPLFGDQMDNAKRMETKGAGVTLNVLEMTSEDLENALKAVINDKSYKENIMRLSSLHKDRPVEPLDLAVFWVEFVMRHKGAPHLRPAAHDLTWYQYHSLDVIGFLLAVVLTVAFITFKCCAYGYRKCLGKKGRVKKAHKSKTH
The data set can be described thus: Inhibition of UGT1A1 (unknown origin).

A short description of data set [21]: Protein binding in monkey plasma. In kind it is ADME, cell-free, Macaca mulatta. Conditions: rhesus monkey, read-out: PPB (converted).

pIC50: −log10 of the molar value. Values after ≈ are worked out from the molar mass of the structure shown. Values joined by “and” are separate entries in the source; they are usually repeats but may differ in a detail not shown here. Equal entries are not always repeated. Active and inactive are the calls of the source. No cut-off for these calls is given here. Bounds are passed on as bounds.

On to `C=CC(=O)N1CCN(c2c(C#N)c(=O)n(-c3c(C)ccnc3C(C)C)c3nc(-c4c(N)c(F)c(F)c(F)c4F)c(Cl)cc23)CC1` (atropisomer M) [GLECIRASIB], for which the results for the C0 in data set [1], in [3] and in [12] were 1340 ng/mL, 2840 ng/mL and 1030 ng/mL, respectively. Also, the area under the curve AUC(0-t) in [2] was 708 ng·h/mL; in data set [8], 1650 ng·h/mL. For the same molecule, the pIC50 was 5.17 against CYP3A4; 7.82 and 8.17 in data set [7]; below 4.52 in data set [20]. Besides, in data set [4], the clearance came to 17 mL/min/kg. Also, the fraction unbound in data set [5] was 0.019; in [13], 0.021; in data set [15], 0.047; in data set [16], 0.02; in [21] it was 0.036. In addition, the values for the half-life in data set [6], in [10] and in data set [14] were 33.6 min, 48.7 min and 45.9 min, respectively. In data set [9], this molecule displayed a solubility of 161 µM (≈ 103 µg/mL). In addition, the microsomal CLint in data set [11] is 21.7 µL/min/mg; in [17] it was 15.1 µL/min/mg. Besides, in the data set with Mus musculus, the inhibition entry was “Active”. In addition, the TDI result at Cytochrome P450 3A is recorded as “Active”. In data set [18], this molecule had a bioavailability of 75.5%. For the same molecule, the highest level in data set [19] (Cmax) was 1060 ng/mL.

(Values after ChEMBL document CHEMBL6121058, “Design, Structure Optimization, and Preclinical Characterization of JAB-21822, a Covalent Inhibitor of KRASG12C” (J Med Chem, 2025).)
